Experiments:
[1] = tested on: P. aeruginosa strain PAO1; assay: MIC in Mueller-Hinton broth supplemented with 50% human plasma or human serum; assay type: cell-based, Pseudomonas aeruginosa; settings: for Minimal inhibitory concentration, Human Plasma: Mueller-Hinton broth supplemented with 50% human plasma; for Minimal inhibitory concentration, Human Serum: Mueller-Hinton broth supplemented with 50% human serum
[2] = tested on: mature biofilms formed by P. aeruginosa strain ATCC 17647; assay: Minimal Biofilm Eradicating Concentration (MBEC), Calgary Biofilm Device, crystal violet; assay type: cell-based, Pseudomonas aeruginosa; settings: P. aeruginosa ATCC 17647 mature biofilm, >95% biofilm biomass removed

Substance | Minimal inhibitory concentration, Human Plasma [1] [µg/mL] | Minimal inhibitory concentration, Human Serum [1] [µg/mL] | MBEC [2] [µg/mL] | MBEC ([2]; listed as T4 lysozyme) [µg/mL]
LL-37 | >64 | >64 | – | –
PGLa | >64 | >64 | – | –
Protegrin 1 | 1 | 4 | – | –
T4 lysozyme [Peptide T4LYZ] | – | – | >64 | > 64

— patent US20210330738A1, “ANTIMICROBIAL, BACTERIOPHAGE-DERIVED POLYPEPTIDES AND THEIR USE AGAINST GRAM-NEGATIVE BACTERIA” (CONTRAFECT CORPORATION, priority 2018, published 2021)
